Laboratory results taken from ChEMBL document CHEMBL1126010, “Conformationally restrained analogues of pravadoline: nanomolar potent, enantioselective, (aminoalkyl)indole agonists of the cannabinoid receptor” (J Med Chem, 1992).

Tests used:
Mus musculus [1] = organism: Mus musculus; test: Inhibitory activity against PG synthesis was measured in mouse brain microsomes at 30 uM; format: functional
Mus musculus [2] = organism: Mus musculus; test: In vitro inhibition of electrically stimulated contractions of isolated mouse vas deferens.; format: functional
Mus musculus [3] = organism: Mus musculus; test: Inhibitory activity against PG synthesis was measured in mouse brain microsomes.; format: functional
Cannabinoid receptor = Cannabinoid receptor (Rattus norvegicus, UniProt Q9QZN9+P20272); test: Concentration required to displace 50% of 0.5 nM [3H](aminoalkyl)indole binding to cannabinoid receptor in rat cerebellum membranes; format: cell membranes, Membrane
Mus musculus [4] = test: In vivo antinociceptive effect was tested in the mouse acetylcholine writhing assay after po administration; format: functional
Mus musculus [5] = test: (§1) in vivo antinociceptive effect was tested in the mouse acetylcholine writhing assay after iv administration; format: functional
[6] = biological target: Cannabinoid receptor (Rattus norvegicus) (UniProt Q9QZN9+P20272); conditions: Cerebellum; Membrane; at 1 µM
Description: Inhibition of 0.5 nM [3H](Aminoalkyl)indole binding to cannabinoid receptor in rat cerebellum membranes at 1 uM

Mus musculus [7] = organism: Mus musculus; test: In vitro inhibition of electrically stimulatedcontradions was measured on isolated mouse vas deferens at 10 uM; format: functional
Mus musculus [8] = test: In Vivo antinociceptive effect was tested in the mouse acetylcholine writhing assay after 100 mg/kg po administration; format: functional
Mus musculus [9] = test: as §1; format: functional, organism-based
Mus musculus [10] = test: In vivo antinociceptive effect was tested in the mouse acetylcholine writhing assay after 100 mg/kg po administration; format: functional

Chain of Cannabinoid receptor (Rattus norvegicus) (P20272 whole entry, looked up): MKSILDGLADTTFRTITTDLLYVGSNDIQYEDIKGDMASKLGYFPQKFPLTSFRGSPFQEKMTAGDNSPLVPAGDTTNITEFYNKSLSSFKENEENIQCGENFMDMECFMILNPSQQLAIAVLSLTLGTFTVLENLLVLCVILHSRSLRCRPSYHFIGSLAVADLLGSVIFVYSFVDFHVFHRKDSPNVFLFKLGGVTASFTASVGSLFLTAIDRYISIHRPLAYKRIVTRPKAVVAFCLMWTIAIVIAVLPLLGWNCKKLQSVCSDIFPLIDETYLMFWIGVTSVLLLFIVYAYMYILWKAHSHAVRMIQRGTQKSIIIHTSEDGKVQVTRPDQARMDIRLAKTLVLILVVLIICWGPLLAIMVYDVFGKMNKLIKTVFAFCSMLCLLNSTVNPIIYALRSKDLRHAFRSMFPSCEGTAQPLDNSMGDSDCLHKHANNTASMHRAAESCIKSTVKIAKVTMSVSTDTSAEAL
Chain of Cannabinoid receptor (Rattus norvegicus) (Q9QZN9 whole entry, looked up): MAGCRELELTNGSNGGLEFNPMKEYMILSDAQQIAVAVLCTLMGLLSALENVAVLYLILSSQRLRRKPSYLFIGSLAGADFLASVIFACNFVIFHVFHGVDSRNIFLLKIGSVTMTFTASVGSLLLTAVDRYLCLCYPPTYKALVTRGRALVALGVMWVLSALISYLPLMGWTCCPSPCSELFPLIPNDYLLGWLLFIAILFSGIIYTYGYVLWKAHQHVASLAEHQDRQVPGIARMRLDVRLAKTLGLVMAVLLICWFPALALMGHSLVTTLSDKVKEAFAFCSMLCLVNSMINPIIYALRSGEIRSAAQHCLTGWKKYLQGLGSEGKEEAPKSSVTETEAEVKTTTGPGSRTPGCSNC

| Compound | IC50 (Mus musculus [2]; Mus musculus) | IC50 (Mus musculus [3]) | IC50 (Cannabinoid receptor) | other results |
| --- | --- | --- | --- | --- |
| COc1ccc(C(=O)c2c3n(c4ccccc24)CC(N2CCOCC2)C3)cc1 (centres undefined) | > 10 µM | – | – | inhibition (Mus musculus [1]): 18% |
| COc1ccc(C(=O)c2c(C)n3c4c(cccc24)OC[C@H]3CN2CCOCC2)cc1 | 0.044 µM | 50 µM | 0.106 µM | – |
| COc1ccc(C(=O)c2c(C)n(CCN3CCOCC3)c3ccccc23)cc1 [PRAVADOLINE] | 0.453 µM | 5 µM | 3.155 µM | ED50 (Mus musculus [4]): 26 mg/kg; ED50 (Mus musculus [5]): 4 mg/kg |
| CCc1c(C(=O)c2ccc(OC)cc2)c2cccc3c2n1C(CN1CCOCC1)CO3 (centres undefined) | – | – | – | inhibition [6]: 27%; inhibition at 10 µM (Mus musculus [7]): 28% |
| COc1ccc2c(c1)c(CC(=O)O)c(C)n2C(=O)c1ccc(Cl)cc1 [INDOMETHACIN] | > 10 µM | 0.5 µM | – | – |
| O=C(c1cccc2ccccc12)c1cn2c3c(cccc13)OCC2CN1CCOCC1 (centres undefined) | 0.002 µM | – | 0.00737 µM | – |
| Cc1c(C(=O)c2cccc3ccccc23)c2cccc3c2n1[C@@H](CN1CCOCC1)CO3 | > 10 µM | 10 µM | – | inhibition in vivo at 100 mg/kg (Mus musculus [8]): 10% |
| COc1ccc(C(=O)c2c(C)n3c4c(cccc24)OCC3CN2CCOCC2)cc1 (centres undefined) | 0.123 µM | 72 µM | 0.152 µM | IC50 (Mus musculus [9]): 4 µM; inhibition in vivo at 100 mg/kg (Mus musculus [8]): 30% |
| COc1ccc(C(=O)c2c(C)n3c4c(cccc24)OC[C@@H]3CN2CCOCC2)cc1 | > 10 µM | 30 µM | 17.5 µM | – |
| Cc1c(C(=O)c2cccc3c(Br)cc(Br)cc23)c2cccc3c2n1[C@H](CN1CCOCC1)CO3 | – | – | 0.0483 µM | – |
| COc1ccc(C(=O)c2cn3c4c(cccc24)OCC3CN2CCOCC2)cc1 (centres undefined) | 0.0455 µM | – | 0.249 µM | inhibition [6]: -9%; ED50 (Mus musculus [4]): 2 mg/kg |
| Cc1c(C(=O)c2cccc3ccccc23)c2cccc3c2n1[C@H](CN1CCOCC1)CO3 (stereo in doubt; 21) [WIN-552122] | – | – | – | IC50 (Mus musculus [2]): 0.006 µM |
| COc1ccc(C(=O)c2c(C)n3c4c(cccc24)CC(N2CCOCC2)C3)cc1 (centres undefined) | > 10 µM | – | – | inhibition [6]: 1.4%; inhibition (Mus musculus [1]): 12%; inhibition in vivo at 100 mg/kg (Mus musculus [10]): 30% |
| Cc1c(C(=O)c2ccc(Br)c3ccccc23)c2cccc3c2n1C(CN1CCOCC1)CO3 (centres undefined) | 0.0022 µM | – | 0.00232 µM | – |
| C[C@H](CCCc1ccccc1)Oc1cc(O)c2c(c1)N[C@@H](C)[C@@H]1CC[C@@H](O)C[C@@H]21 | 0.0023 µM | – | 0.00046 µM | – |
| Cc1c(C(=O)c2cccc3ccccc23)c2cccc3c2n1[C@H](CN1CCOCC1)CO3 (stereo in doubt) [WIN-552122] | – | 9 µM | – | IC50 (Mus musculus [2]): 0.00043 µM |
| COc1ccc(C(=O)c2c3n(c4ccccc24)C(CN2CCOCC2)CC3)cc1 (centres undefined) | 0.32 µM | – | 3.053 µM | – |
| Cc1c(C(=O)c2ccc3ncccc3c2)c2cccc3c2n1C(CN1CCOCC1)CO3 (centres undefined) | 0.021 µM | 26 µM | 0.1325 µM | – |
| Cc1c(C(=O)c2ccccc2F)c2cccc3c2n1C(CN1CCOCC1)CO3 (centres undefined) | 0.076 µM | 42 µM | 1.426 µM | – |
| COc1ccc(C(=O)c2c3n(c4ccccc24)CCC3N2CCOCC2)cc1 (centres undefined) | > 10 µM | – | – | ED50 (Mus musculus [4]): 91 mg/kg; inhibition (Mus musculus [1]): 49% |
